Laboratory results reported in article PMC7478165, “Derivatisation of parthenolide to address chemoresistant chronic lymphocytic leukaemia” (MedChemComm, 2019).

Test system: MEC1 CLL cell line
Assay: cells
Design: alamarBlue (resazurin reduction) viability assay in MEC1 CLL cells
Conditions: Homo sapiens, MEC1, 24 h; read-out: alamarBlue EC50 (uM) average
Text: Defective p53-signalling increases genomic instability and drives tumour progression. A high frequency of p53 inactivation is found in relapsed, treatment-resistant, high risk CLL.[30] […] Owing to resource availability a subset of up to ten of these compounds was prioritised for further investigation. Compounds 2d, 2e, 2j, 2aa, 5a, 5d, 5e, 5f, 5ab and 6b were selected on the basis of reasons including ease of synthetic access, diversity across the chemical space probed and novelty. Those prepared under conditions (i)Scheme 1 (2d, 5a and 6b) were available on a scale and in a purity to directly permit follow-up studies, whereas compounds prepared under conditions (ii)Scheme 1 were prepared on a small scale so were resynthesised. These seven compounds (2e, 2j, 2aa, 5d, 5e, 5f and 5ab) were isolated on >30 mg scale in high purity and progressed to more following studies. Biological efforts at Sygnature Discovery (where differing to University of Birmingham) MEC1 cells were obtained from the American Type Culture Collection (Manassas, VA 20110 USA) and were routinely cultured in RPMI 1640 medium (Sigma-Aldrich) supplemented with 1% L-glutamine (Sigma-Aldrich), 1% Penicillin/Streptomycin (Sigma-Aldrich) and 10% FBS (Gibco). The MEC1 proliferation assay was conducted by performing a re-feed of the MEC1 cells 24 h prior to cell seeding. On the day of the assay, cells were seeded into a 384-well assay plate at a density of 12,500 cells/well in 25 μL of complete MEC1 medium. Compound treatment was performed on the day of cell seeding, with compounds prepared as duplicate compound response curves (final DMSO concentration of 0.6%). Post compound treatment, MEC1 assay plates were returned to a 37 °C/5% CO2 incubator for 24 h of incubation. Following compound treatment, cellular viability was determined by measuring reduction of alamarBlue® reagent (Invitrogen). alamarBlue® reagent (2.5 μL) was added to each assay well to give a 1:10 dilution of the neat stock and assay plates were incubated for 3 h at 37 °C/5% CO2. Reduction of alamarBlue® was determined using an Envision Xcite plate reader (Perkin Elmer) with an excitation wavelength of 560 nm set and an emission wavelength of 590 nm set. Cell viability was determined by normalising raw fluorescent data to a cell only high control and Parthenolide treated low control to provide percentage viability readout. Data was plotted and EC50 values extracted and reported EC50s represent an average of at least two independent assays.

Compared with `CC1=CCCC2(C)OC2C2OC(=O)C(CN(C)C(C)C)C2CC1` (centres unmarked) [2b], `CC1=CCCC2(C)OC2C2OC(=O)C(CN(C)CCO)C2CC1` (centres unmarked) [2c] is lower in EC50: greater than 30 µM for the first, 5.2 µM for the second.

First: CC1=CCCC2(C)OC2C2OC(=O)C(CN(C)Cc3ccc(Cl)cc3)C2CC1 (centres unmarked) [2h]
Second: CC1=CCCC2(C)OC2C2OC(=O)C(CN(C)Cc3cccc(C(F)(F)F)c3)C2CC1 (centres unmarked) [2p]
The EC50 of the first is lower: 18.3 µM for the first, greater than 30 µM for the second.

`CCOc1cccc(CN(CCO)CC2C(=O)OC3C2CCC(C)=CCCC2(C)OC32)c1` (centres unmarked) [2i] and `CC1=CCCC2(C)OC2C2OC(=O)C(CNCCOc3cccc(C)c3)C2CC1` (centres unmarked) [4h] are within 1.5-fold of each other in EC50: 19.2 µM for the first, 21.9 µM for the second.

First: CC1=CCCC2(C)OC2C2OC(=O)C(CN(C)Cc3n[nH]c4c3CCCCC4)C2CC1 (centres unmarked) [2k]
Second: CC1=CCCC2(C)OC2C2OC(=O)C(CN(C)Cc3nc4cc(C)c(C)cc4[nH]3)C2CC1 (centres unmarked) [2y]
The EC50 of the first is lower: 19.3 µM for the first, greater than 30 µM for the second. The first is the more potent here.

Going from `CCN(Cc1cc(Cl)ccc1OC)CC1C(=O)OC2C1CCC(C)=CCCC1(C)OC21` (centres unmarked) [2l] to `CC1=CCCC2(C)OC2C2OC(=O)C(CNCc3ccc(Cl)cc3Cl)C2CC1` (centres unmarked) [4ac], the EC50 rises from 19.8 µM to greater than 30 µM.

`CC1=CCCC2(C)OC2C2OC(=O)C(CN(C)Cc3nnc(-c4ccccc4)o3)C2CC1` (centres unmarked) [2n] and `CC1=CCCC2(C)OC2C2OC(=O)C(CN(C)Cc3nc(-c4ccccn4)no3)C2CC1` (centres unmarked) [2q] cannot be ordered by EC50: greater than 30 µM for the first, greater than 30 µM for the second.

`CC1=CCCC2(C)OC2C2OC(=O)C(CN(Cc3sccc3C)C3CC3)C2CC1` (centres unmarked) [2r] and `CC1=CCCC2(C)OC2C2OC(=O)C(CNCCc3nccs3)C2CC1` (centres unmarked) [4s] cannot be ordered by EC50: greater than 30 µM for the first, greater than 30 µM for the second.

`CCCc1nc(CN(CC)CC2C(=O)OC3C2CCC(C)=CCCC2(C)OC32)no1` (centres unmarked) [2s] and `C#CCNCC1C(=O)OC2C1CCC(C)=CCCC1(C)OC21` (centres unmarked) [4d] cannot be ordered by EC50: greater than 30 µM for the first, greater than 30 µM for the second.

`CC1=CCCC2(C)OC2C2OC(=O)C(CN(Cc3ccco3)Cc3cccs3)C2CC1` (centres unmarked) [2t] and `CC1=CCCC2(C)OC2C2OC(=O)C(CNCc3ccco3)C2CC1` (centres unmarked) [4m] cannot be ordered by EC50: greater than 30 µM for the first, greater than 30 µM for the second.

`CC1=CCCC2(C)OC2C2OC(=O)C(CN(Cc3ccncc3)Cc3ccc4c(c3)OCO4)C2CC1` (centres unmarked) [2u] and `CC1=CCCC2(C)OC2C2OC(=O)C(CNCc3ccc(N(C)C)cc3)C2CC1` (centres unmarked) [4n] cannot be ordered by EC50: greater than 30 µM for the first, greater than 30 µM for the second.

Going from `CC1=CCCC2(C)OC2C2OC(=O)C(CNCCO)C2CC1` (centres unmarked) [4a] to `COCCNCC1C(=O)OC2C1CCC(C)=CCCC1(C)OC21` (centres unmarked) [4b], the EC50 rises from 19 µM to greater than 30 µM. The first is the more potent here.

`CC1=CCCC2(C)OC2C2OC(=O)C(CNCc3ccc(F)cc3C(F)(F)F)C2CC1` (centres unmarked) [4aa] and `CC1=CCCC2(C)OC2C2OC(=O)C(CNCc3ccccc3C(F)(F)F)C2CC1` (centres unmarked) [4u] cannot be ordered by EC50: greater than 30 µM for the first, greater than 30 µM for the second.

`CC1=CCCC2(C)OC2C2OC(=O)C(CNCc3c(F)cccc3C(F)(F)F)C2CC1` (centres unmarked) [4ab] and `CC1=CCCC2(C)OC2C2OC(=O)C(CNCc3c(F)cccc3F)C2CC1` (centres unmarked) [4z] cannot be ordered by EC50: greater than 30 µM for the first, greater than 30 µM for the second.

`CC1=CCCC2(C)OC2C2OC(=O)C(CNCc3c(F)cccc3Cl)C2CC1` (centres unmarked) [4ad] and `CC1=CCCC2(C)OC2C2OC(=O)C(CNCc3c(Cl)cccc3Cl)C2CC1` (centres unmarked) [4t] cannot be ordered by EC50: greater than 30 µM for the first, greater than 30 µM for the second.

Going from `CC1=CCCC2(C)OC2C2OC(=O)C(CNCc3ccccc3)C2CC1` (centres unmarked) [4c] to `COc1ccccc1CNCC1C(=O)OC2C1CCC(C)=CCCC1(C)OC21` (centres unmarked) [4p], the EC50 rises from 20.4 µM to greater than 30 µM. The first is the more potent here.

First: CC1=CCCC2(C)OC2C2OC(=O)C(CNCC3CCOCC3)C2CC1 (centres unmarked) [4f]
Second: CC1=CCCC2(C)OC2C2OC(=O)C(CNCC(C)(C)N3CCOCC3)C2CC1 (centres unmarked) [4r]
The EC50 of the first is lower: 23.3 µM for the first, greater than 30 µM for the second.

`CC1=CCCC2(C)OC2C2OC(=O)C(CNCc3ccc(Cl)cc3F)C2CC1` (centres unmarked) [4i] and `CC1=CCCC2(C)OC2C2OC(=O)C(CNCc3c(F)cc(F)cc3F)C2CC1` (centres unmarked) [4l] cannot be ordered by EC50: greater than 30 µM for the first, greater than 30 µM for the second.

`COc1ccc(-c2noc(CNCC3C(=O)OC4C3CCC(C)=CCCC3(C)OC43)n2)cc1OC` (centres unmarked) [4k] and `CC1=CCCC2(C)OC2C2OC(=O)C(CNCc3ccccc3N(C)C)C2CC1` (centres unmarked) [4q] cannot be ordered by EC50: greater than 30 µM for the first, greater than 30 µM for the second.

`CC1=CCCC2(C)OC2C2OC(=O)C(CNCc3ccc(C(F)(F)F)cc3)C2CC1` (centres unmarked) [4v] and `CC1=CCCC2(C)OC2C2OC(=O)C(CNCc3ccc(OC(F)(F)F)cc3)C2CC1` (centres unmarked) [4w] cannot be ordered by EC50: greater than 30 µM for the first, greater than 30 µM for the second.

`CC1=CCCC2(C)OC2C2OC(=O)C(CNCc3ccccc3OC(F)(F)F)C2CC1` (centres unmarked) [4x] and `CC1=CCCC2(C)OC2C2OC(=O)C(CNCc3cccc(OC(F)(F)F)c3)C2CC1` (centres unmarked) [4y] cannot be ordered by EC50: greater than 30 µM for the first, greater than 30 µM for the second.

First: CC1=CCCC2(C)OC2C2OC(=O)C(CN3CCCCC3)C2CC1 (centres unmarked) [5b]
Second: CC1=CCCC2(C)OC2C2OC(=O)C(CN3CCC(N4CCCCC4)CC3)C2CC1 (centres unmarked) [5r]
The EC50 of the first is lower: 7.8 µM for the first, greater than 30 µM for the second.

Going from `CC1=CCCC2(C)OC2C2OC(=O)C(CN3CCN(C)CC3)C2CC1` (centres unmarked) [5c] to `COCCN1CCN(CC2C(=O)OC3C2CCC(C)=CCCC2(C)OC32)CC1` (centres unmarked) [5j], the EC50 falls from greater than 30 µM to 19.5 µM. The second is the more potent here.

`CC1=CCCC2(C)OC2C2OC(=O)C(CN3CCC4(CC3)OCCO4)C2CC1` (centres unmarked) [5g] and `CCCC1CCN(CC2C(=O)OC3C2CCC(C)=CCCC2(C)OC32)CC1` (centres unmarked) [5i] are within 1.5-fold of each other in EC50: 15.2 µM for the first, 22.2 µM for the second.

Compared with `CC1=CCCC2(C)OC2C2OC(=O)C(CN3CCC(N4CCc5ccccc5C4)CC3)C2CC1` (centres unmarked) [5k], `CC1=CCCC2(C)OC2C2OC(=O)C(CN3CCC(C#N)(c4ccccc4)CC3)C2CC1` (centres unmarked) [5p] is higher in EC50: 16.3 µM for the first, greater than 30 µM for the second. The first is the more potent here.

First: CC1=CCCC2(C)OC2C2OC(=O)C(CN3CCN(c4ncccn4)CC3)C2CC1 (centres unmarked) [5m]
Second: CC1=CCCC2(C)OC2C2OC(=O)C(CN3CCN(CCc4cccs4)CC3)C2CC1 (centres unmarked) [5t]
The EC50 of the first is lower: 24.8 µM for the first, greater than 30 µM for the second.

`CC1=CCCC2(C)OC2C2OC(=O)C(CN3CCN(Cc4cccc(C)c4)C(=O)C3)C2CC1` (centres unmarked) [5o] and `CCCCN1CCN(CC2C(=O)OC3C2CCC(C)=CCCC2(C)OC32)CC1` (centres unmarked) [5x] cannot be ordered by EC50: greater than 30 µM for the first, greater than 30 µM for the second.

`CC1=CCCC2(C)OC2C2OC(=O)C(CN3CCN(C(C)(C)C)CC3)C2CC1` (centres unmarked) [5s] and `CC1=CCCC2(C)OC2C2OC(=O)C(CN3CCN(CC4CCCCC4)CC3)C2CC1` (centres unmarked) [5u] cannot be ordered by EC50: greater than 30 µM for the first, greater than 30 µM for the second.

`CC1=CCCC2(C)OC2C2OC(=O)C(CN3CCn4c(nnc4C(F)(F)F)C3)C2CC1` (centres unmarked) [5v] and `CC1=CCCC2(C)OC2C2OC(=O)C(CSCCO)C2CC1` (centres unmarked) [compound 3] cannot be ordered by EC50: greater than 30 µM for the first, greater than 30 µM for the second.
